Assay results reported in PubChem BioAssay AID2060893 (Molecular Pharmacology Branch, DTP, NCI, 2025).

System: K86415-001-R-J1-PDC complex spheroids, viability
Assay: Anticancer human tumor K86415-001-R-J1-PDC patient-derived lung adenocarcinoma cell line growth inhibition [RAS]
Settings: for IC50: curve of first compound; for viability, T/C: stronger effect = lower value
Summary of the method: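 Agents were tested in combination matrices in half-log decrements from a top concentration at or near clinical Cmax (10 microM if undetermined). Targets were multi-cell spheroids of tumour lines plus HUVEC and MSC stromal cells.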
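Also: spheroids exposed to agents for seven days before readout.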

SMILES: CC1(O)CCCC1n1c(=O)c(C(F)F)cc2cnc(NC3CCN(S(C)(=O)=O)CC3)nc21 (centres undefined) + CCn1c(-c2cccnc2C(C)OC)c2c3cc(ccc31)N1CCOC(CC(NC(=O)C(C(C)C)N(C)C(=O)C3(F)CCN(C(=O)C#CC(C)(C)N(C)C)CC3)C(=O)N3CCCC(N3)C(=O)OCC(C)(C)C2)C1
- IC50 (second compound 0.000949 µM): < 31.6 nM
- IC50 (second compound 0.003 µM): < 31.6 nM
- IC50 (second compound 0.00949 µM): < 31.6 nM
- IC50 (second compound 0.03 µM): < 31.6 nM
- IC50 (second compound 0.0949 µM): < 31.6 nM
- IC50 (second compound 0.3 µM): < 31.6 nM
- viability, T/C (second compound 0.000949 µM, first compound 0.0316 µM): 30.1%
- viability, T/C (second compound 0.000949 µM, first compound 0.1 µM): 32.6%
- viability, T/C (second compound 0.000949 µM, first compound 0.316 µM): 21.6%
- viability, T/C (second compound 0.000949 µM, first compound 1 µM): 38.8%
- viability, T/C (second compound 0.000949 µM, first compound 3.16 µM): 48.3%
- viability, T/C (second compound 0.000949 µM, first compound 10 µM): 4.79%
- viability, T/C (second compound 0.003 µM, first compound 0.0316 µM): 12.8%
- viability, T/C (second compound 0.003 µM, first compound 0.1 µM): 11.3%
- viability, T/C (second compound 0.003 µM, first compound 0.316 µM): 14.8%
- viability, T/C (second compound 0.003 µM, first compound 1 µM): 17.3%
- viability, T/C (second compound 0.003 µM, first compound 3.16 µM): 25%
- viability, T/C (second compound 0.003 µM, first compound 10 µM): 4.45%
- viability, T/C (second compound 0.00949 µM, first compound 0.0316 µM): 13.9%
- viability, T/C (second compound 0.00949 µM, first compound 0.1 µM): 10.5%
- viability, T/C (second compound 0.00949 µM, first compound 0.316 µM): 12.7%
- viability, T/C (second compound 0.00949 µM, first compound 1 µM): 18.9%
- viability, T/C (second compound 0.00949 µM, first compound 3.16 µM): 19.8%
- viability, T/C (second compound 0.00949 µM, first compound 10 µM): 4.71%
- viability, T/C (second compound 0.03 µM, first compound 0.0316 µM): 13.7%
- viability, T/C (second compound 0.03 µM, first compound 0.1 µM): 13.3%
- viability, T/C (second compound 0.03 µM, first compound 0.316 µM): 14.6%
- viability, T/C (second compound 0.03 µM, first compound 1 µM): 15.6%
- viability, T/C (second compound 0.03 µM, first compound 3.16 µM): 18.1%
- viability, T/C (second compound 0.03 µM, first compound 10 µM): 4.45%
- viability, T/C (second compound 0.0949 µM, first compound 0.0316 µM): 11.3%
- viability, T/C (second compound 0.0949 µM, first compound 0.1 µM): 15%
- viability, T/C (second compound 0.0949 µM, first compound 0.316 µM): 11.6%
- viability, T/C (second compound 0.0949 µM, first compound 1 µM): 20.2%
- viability, T/C (second compound 0.0949 µM, first compound 3.16 µM): 14.9%
- viability, T/C (second compound 0.0949 µM, first compound 10 µM): 5.12%
- viability, T/C (second compound 0.3 µM, first compound 0.0316 µM): 13%
- viability, T/C (second compound 0.3 µM, first compound 0.1 µM): 14.5%
- viability, T/C (second compound 0.3 µM, first compound 0.316 µM): 12.7%
- viability, T/C (second compound 0.3 µM, first compound 1 µM): 14.6%
- viability, T/C (second compound 0.3 µM, first compound 3.16 µM): 17.6%
- viability, T/C (second compound 0.3 µM, first compound 10 µM): 3.94%

SMILES: O=C(c1ccc(F)c(F)c1Nc1ccc(I)cc1F)N1CC(O)([C@@H]2CCCCN2)C1 + C=CC(=O)N1CCN(c2nc(OCC3CCCN3C)nc3c(F)c(-c4nc(N)cc(C)c4C(F)(F)F)c(Cl)cc23)C(C)C1
- IC50 (second compound 0.00316 µM): < 3.16 nM
- IC50 (second compound 0.01 µM): < 3.16 nM
- IC50 (second compound 0.0316 µM): < 3.16 nM
- IC50 (second compound 0.1 µM): < 3.16 nM
- IC50 (second compound 0.316 µM): < 3.16 nM
- IC50 (second compound 1 µM): < 3.16 nM
- viability, T/C (second compound 0.00316 µM, first compound 0.00316 µM): 18.7%
- viability, T/C (second compound 0.00316 µM, first compound 0.01 µM): 15.5%
- viability, T/C (second compound 0.00316 µM, first compound 0.0316 µM): 11.7%
- viability, T/C (second compound 0.00316 µM, first compound 0.1 µM): 11.2%
- viability, T/C (second compound 0.00316 µM, first compound 0.316 µM): 6.3%
- viability, T/C (second compound 0.00316 µM, first compound 1 µM): 3.59%
- viability, T/C (second compound 0.01 µM, first compound 0.00316 µM): 10.7%
- viability, T/C (second compound 0.01 µM, first compound 0.01 µM): 9.82%
- viability, T/C (second compound 0.01 µM, first compound 0.0316 µM): 7.43%
- viability, T/C (second compound 0.01 µM, first compound 0.1 µM): 7.21%
- viability, T/C (second compound 0.01 µM, first compound 0.316 µM): 5.24%
- viability, T/C (second compound 0.01 µM, first compound 1 µM): 2.8%
- viability, T/C (second compound 0.0316 µM, first compound 0.00316 µM): 10.5%
- viability, T/C (second compound 0.0316 µM, first compound 0.01 µM): 8.28%
- viability, T/C (second compound 0.0316 µM, first compound 0.0316 µM): 7.31%
- viability, T/C (second compound 0.0316 µM, first compound 0.1 µM): 5.71%
- viability, T/C (second compound 0.0316 µM, first compound 0.316 µM): 6.7%
- viability, T/C (second compound 0.0316 µM, first compound 1 µM): 2.39%
- viability, T/C (second compound 0.1 µM, first compound 0.00316 µM): 9.48%
- viability, T/C (second compound 0.1 µM, first compound 0.01 µM): 8.63%
- viability, T/C (second compound 0.1 µM, first compound 0.0316 µM): 6.77%
- viability, T/C (second compound 0.1 µM, first compound 0.1 µM): 5.29%
- viability, T/C (second compound 0.1 µM, first compound 0.316 µM): 3.4%
- viability, T/C (second compound 0.1 µM, first compound 1 µM): 2.5%
- viability, T/C (second compound 0.316 µM, first compound 0.00316 µM): 9.04%
- viability, T/C (second compound 0.316 µM, first compound 0.01 µM): 7.51%
- viability, T/C (second compound 0.316 µM, first compound 0.0316 µM): 6.81%
- viability, T/C (second compound 0.316 µM, first compound 0.1 µM): 5.26%
- viability, T/C (second compound 0.316 µM, first compound 0.316 µM): 5.12%
- viability, T/C (second compound 0.316 µM, first compound 1 µM): 1.9%
- viability, T/C (second compound 1 µM, first compound 0.00316 µM): 10%
- viability, T/C (second compound 1 µM, first compound 0.01 µM): 8.81%
- viability, T/C (second compound 1 µM, first compound 0.0316 µM): 8.35%
- viability, T/C (second compound 1 µM, first compound 0.1 µM): 5.6%
- viability, T/C (second compound 1 µM, first compound 0.316 µM): 4.91%
- viability, T/C (second compound 1 µM, first compound 1 µM): 2.61%
